Data taken from patent US11903925B2, “Compositions for preventing and treating pulmonary injury due to ionizing radiation or cytotoxic drugs” (RepoCeuticals A/S, priority 2015, dated 2024).
Values belong to the compound of their own block, whether it stands above or below them.

How the values were obtained:
[1] = Stability (suitability for use in a pharmaceutical composition); conditions: hence unsuitable for use in a pharmaceutical composition
[2] = Solubility of melatonin in water / aqueous solution; format: physicochemical; conditions: straightforward attempts at dissolving melatonin in water
Procedure: The pharmaceutical composition of the present invention may be in the form of a powder, solution, emulsion, suspension, or micellar, microsphere, microcapsular, nanoparticulate or liposomal preparation. Melatonin and most of its analogues, derivatives and metabolites are only sparingly soluble in water, straightforward attempts at dissolving melatonin in water yielding a maximum melatonin concentration of only 0.1 mg/mL. Higher concentrations of melatonin are needed if aqueous preparations of melatonin are to be administered in a convenient manner, e.g. by the inhalation of an aerosol of the preparation, to the airways epithelium at the concentrations estimated to be necessary to exert a protective action against free radical damage. A method of achieving this is outlined below.
A further formulation is to supply the composition as a dry powder as described above in a capped vial, to be reconstituted as a solution for nebulization by adding a given volume of sterile water from a second vial, to be used within one hour. The water for dissolving the formulation may contain the empirically determined amount of salts and buffering ions to produce a solution of the composition that has a near-physiological pH and osmolarity with reference to plasma to avoid the provocation of cough and bronchoconstriction on inhalation. […]

lung = conditions: use of cytotoxic chemotherapeutic agents for cancer; cited from earlier work

Compound: COc1ccc(N)c(C(=O)CCNC(C)=O)c1 [N^1-acetyl-5-methoxykynuramine]
stability [1]: unstable

maximum melatonin concentration in water [2]: 0.1 mg/mL
Compound: COc1ccc2[nH]cc(CCNC(C)=O)c2c1 [melatonin, N-acetyl-5-methoxytryptamine]

Compound: Bleomycin
overall rate of pulmonary damage (lung): over 40%
